The results in this text go back to ChEMBL document CHEMBL3045207, “1-Phenyl-3-toluyl-4-[ortho-1'-(N-ethyl-2'-methylpropylamine)]phenylpyrazole, synthesis and evaluation of the in vitro antifungal activity against Botrytis cinerea and Fusarium oxysporum” (Farmaco, 2004).

By IC50 is commonly meant the midpoint of a concentration-inhibition curve. Lower therefore signals inhibition by little substance. In general, inhibition refers to the relative decrease from the control value, in per cent. A word on the MIC: it is the least concentration at which growth counts as inhibited. Read a low MIC as a more susceptible organism.

Each structure is given as a SMILES string. Converted amounts (≈) assume the structure as drawn. The source made the active and inactive calls. The calls are words filed in the database; no cut-off is given here.

Assay [1] deals with Fusarium oxysporum. Description: Inhibition of conidial germination of Fusarium oxysporum after 8 days by microscopy. The settings on record: 192 h. Type of assay: functional, organism-based.
Assay [2] concerns Fusarium oxysporum. The assay is described as follows: Inhibition of mycelial growth of Fusarium oxysporum after […]. Type of assay: functional, organism-based.
Assay [3] relates to Fusarium oxysporum. The assay is described as follows: Inhibition of conidial germination of Fusarium oxysporum at 10 ug/ml after 48 hr by microscopy. Type of assay: functional.
The test system of assay [4] is Fusarium oxysporum. Description: Antifungal activity against Fusarium oxysporum assessed as growth inhibition at 1 mg/ml after 72 hr by paper disk diffusion method. The settings on record: read-out: DIZ. Type of assay: functional. A general note: In agar diffusion tests the substance spreads into inoculated agar from a disc or well.
Assay [5] concerns Botrytis cinerea. Description: Antifungal activity against Botryotinia fuckeliana after 72 hr by 96-well microbioassay. Type of assay: functional.
Assay [6] deals with Botrytis cinerea. Description: Inhibition of mycelial growth of Botryotinia fuckeliana after […]. In kind it is functional, organism-based.
Assay [7] concerns Botrytis cinerea. The assay is described as follows: Inhibition of conidial germination of Botryotinia fuckeliana at 10 ug/ml after 48 hr by microscopy. Type of assay: functional.
Assay [8] has as its system Fusarium oxysporum. Description: Inhibition of conidial germination of Fusarium oxysporum at 100 ug/ml after 8 days by microscopy. In kind it is functional, organism-based.
The test system of assay [9] is Botrytis cinerea. Description: Inhibition of conidial germination of Botryotinia fuckeliana at 50 ug/ml after 8 days by microscopy. Type of assay: functional, organism-based.
Assay [10] deals with Botrytis cinerea. Description: Inhibition of conidial germination of Botryotinia fuckeliana after 8 days by microscopy. In kind it is functional, organism-based. To be noted: 192 h.
In assay [11] the test system is Botrytis cinerea. Description: Antifungal activity against Botryotinia fuckeliana assessed as growth inhibition at 1 mg/ml after 72 hr by paper disk diffusion method. To be noted: read-out: DIZ. Type of assay: functional.
In assay [12] the test system is Fusarium oxysporum. Description: Antifungal activity against Fusarium oxysporum after 72 hr by 96-well microbioassay. In kind it is functional.

As for `CCNC(c1ccccc1-c1cn(-c2ccccc2)nc1-c1ccc(C)cc1)C(C)C` (stereo unspecified), the IC50 in the assay on Fusarium oxysporum [1] was determined as 40.8 µg/mL (≈ 99.6 µM); in the assay with Fusarium oxysporum [2], 17.8 µg/mL (≈ 43.4 µM); with Botrytis cinerea [6], 6.8 µg/mL (≈ 16.6 µM); with Botrytis cinerea [10] it was 7.3 µg/mL (≈ 17.8 µM). The results for the inhibition at 10 µg/mL in the assay on Fusarium oxysporum [3] and in the assay on Botrytis cinerea [7] were 20% and 85%, respectively. Besides, the zone of inhibition at 1000 µg/mL was 23.6 mm in the assay with Fusarium oxysporum [4] and 26 mm in the assay with Botrytis cinerea [11]. Also, the figures for the MIC in the assay with Botrytis cinerea [5] and against Fusarium oxysporum [12] were 25 µg/mL (≈ 61 µM) and 36 µg/mL (≈ 87.9 µM), respectively. Besides, the inhibition entry in the assay on Fusarium oxysporum [8] and in the assay on Botrytis cinerea [9] was “Active” throughout.
Take `C[C@@H]1[C@H](O)[C@@H](C)/C=C/C=C/C=C/C=C/C=C/C=C/C=C/[C@H](O[C@@H]2O[C@H](C)[C@@H](O)[C@H](N)[C@@H]2O)C[C@@H]2O[C@](O)(C[C@@H](O)C[C@@H](O)[C@H](O)CC[C@@H](O)C[C@@H](O)CC(=O)O[C@H]1C)C[C@H](O)[C@H]2C(=O)O` [AMPHOTERICIN B]: the values for the zone of inhibition at 1000 µg/mL with Fusarium oxysporum [4] and with Botrytis cinerea [11] were 26 mm and 30 mm, respectively. Moreover, the MIC came out at 12 µg/mL (≈ 13 µM) in the assay on Botrytis cinerea [5] and 15 µg/mL (≈ 16.2 µM) against Fusarium oxysporum [12].
